Test results published in US7973080B2 (Ambria Dermatology AB, priority 2003, dated 2011).

How the values were obtained:
Experiment in all cases: MIC by standard blood agar dilution technique
[1] = system: Escherichia coli; conditions: E. coli 921 × 57418
Source text: (§1) The following bacteria were investigated: methicillin-resistant Staphylococcus aureus (MSRA), fucidic acid-resistant S. aureus, non-resistant S. pyogenes, coagulation-negative staphylococci (for resistance, see Table 1 below) vancomycin-resistant enterococci (Enterococcus CCUG van A and van B), non-resistant Escherichia coli, Acinetobacter resistant against cefadroxil, nitrofurantin, mecillinam, Serratia maltophilia resistant against most types of antibiotics, Enterobacter (for resistance, see Table 1 below; additionally resistant against cefadroxil and nitrofurantin), non-resistant α-streptococci, non-resistant Streptococcus Group G, Pseudomonas aeruginosa (for resistance, see Table 2 below). Inocula of 10^3 and 10^5 bacteria were used.

[2] = system: Enterococcus; conditions: MR fuc +
Source text: as §1

[3] = system: Streptococcus group G; conditions: inoculate size 10^3
Source text: as §1

[4] = system: coagulation-negative staphylococci
Source text: as §1

[5] = system: Enterobacter; conditions: MR tri −
Source text: as §1

Structure (SMILES): OCCCCCO [pentane-1,5-diol]
- MIC (% by weight of pentane-1,5-diol) ([1]; inoculate size 10^3): 5.0 % by weight
- MIC (% by weight of pentane-1,5-diol) ([1]; inoculate size 10^5): 10.0 % by weight
- MIC (% by weight of pentane-1,5-diol) ([2]; Enterococcus 921 × 57002, inoculate size 10^3, van −, tri −): 7.5 % by weight
- MIC (% by weight of pentane-1,5-diol) ([2]; Enterococcus 921 × 57002, inoculate size 10^5, van −, tri −): 10.0 % by weight
- MIC (% by weight of pentane-1,5-diol) ([2]; Enterococcus 921 × 57022, inoculate size 10^3, van −, cip +, tri +): 5.0 % by weight
- MIC (% by weight of pentane-1,5-diol) ([2]; Enterococcus 921 × 57022, inoculate size 10^5, van −, cip +, tri +): 7.5 % by weight
- MIC (% by weight of pentane-1,5-diol) ([2]; Enterococcus 921 × 57057, inoculate size 10^3, van −, tri −): 7.5 % by weight
- MIC (% by weight of pentane-1,5-diol) ([2]; Enterococcus 921 × 57057, inoculate size 10^5, van −, tri −): 10.9 % by weight
- MIC (% by weight of pentane-1,5-diol) ([2]; Enterococcus 921 × 57093, inoculate size 10^3, van −, tri +): 7.5 % by weight
- MIC (% by weight of pentane-1,5-diol) ([2]; Enterococcus 921 × 57093, inoculate size 10^5, van −, tri +): 10.0 % by weight
- MIC (% by weight of pentane-1,5-diol) ([2]; Enterococcus 921 × 57158, inoculate size 10^3, van −, tri +): 7.5 % by weight
- MIC (% by weight of pentane-1,5-diol) ([2]; Enterococcus 921 × 57158, inoculate size 10^5, van −, tri +): 7.5 % by weight
- MIC (% by weight of pentane-1,5-diol) ([2]; Enterococcus CCUG 37593 vanB, inoculate size 10^3, van +): 5.0 % by weight
- MIC (% by weight of pentane-1,5-diol) ([2]; Enterococcus CCUG 37593 vanB, inoculate size 10^5, van +): 7.5 % by weight
- MIC (% by weight of pentane-1,5-diol) ([2]; Enterococcus CCUG 37832 vanA, inoculate size 10^3, van +): 5.0 % by weight
- MIC (% by weight of pentane-1,5-diol) ([2]; Enterococcus CCUG 37832 vanA, inoculate size 10^5, van +): 7.5 % by weight
- MIC (% by weight of pentane-1,5-diol) ([2]; Enterococcus CCUG 39128 vanA, inoculate size 10^3, van +): 5.0 % by weight
- MIC (% by weight of pentane-1,5-diol) ([2]; Enterococcus CCUG 39128 vanA, inoculate size 10^5, van +): 10.0 % by weight
- MIC (% by weight of pentane-1,5-diol) ([2]; Enterococcus CCUG 43324 vanA, inoculate size 10^3, van +): 7.5 % by weight
- MIC (% by weight of pentane-1,5-diol) ([2]; Enterococcus CCUG 43324 vanA, inoculate size 10^5, van +): 10.0 % by weight
- MIC (% by weight of pentane-1,5-diol) ([3]; Strepotocccus group G 912 × 1106): 7.5 % by weight
- MIC (% by weight of pentane-1,5-diol) ([3]; Streptococcus group G 900 × 1714): 10.0 % by weight
- MIC (% by weight of pentane-1,5-diol) ([3]; Streptococcus group G 915 × 1095): 7.5 % by weight
- MIC (% by weight of pentane-1,5-diol) ([3]; Streptococcus group G 915 × 1146): 7.5 % by weight
- MIC (% by weight of pentane-1,5-diol) ([3]; Streptococcus group G 916 × 10985): 7.5 % by weight
- MIC (% by weight of pentane-1,5-diol) ([4]; Coag.neg.staph. 900 × 5515, inoculate size 10^3, MR fuc +): 12.5 % by weight
- MIC (% by weight of pentane-1,5-diol) ([4]; Coag.neg.staph. 900 × 5515, inoculate size 10^5, MR fuc +): 15.0 % by weight
- MIC (% by weight of pentane-1,5-diol) ([4]; Coag.neg.staph. 900 × 5516, inoculate size 10^3, MR fuc −): 7.5 % by weight
- MIC (% by weight of pentane-1,5-diol) ([4]; Coag.neg.staph. 900 × 5516, inoculate size 10^5, MR fuc −): 12.5 % by weight
- MIC (% by weight of pentane-1,5-diol) ([4]; Coag.neg.staph. 900 × 5525, inoculate size 10^5, MR fuc −): 7.5 % by weight
- MIC (% by weight of pentane-1,5-diol) ([4]; Coag.neg.staph. 900 × 5538, inoculate size 10^3, MR fuc −): 5.0 % by weight
- MIC (% by weight of pentane-1,5-diol) ([4]; Coag.neg.staph. 900 × 5538, inoculate size 10^5, MR fuc −): 12.5 % by weight
- MIC (% by weight of pentane-1,5-diol) ([4]; Coag.neg.staph. 900 × 5539, inoculate size 10^3, MR fuc −): 7.5 % by weight
- MIC (% by weight of pentane-1,5-diol) ([4]; Coag.neg.staph. 900 × 5539, inoculate size 10^5, MR fuc −): 10.0 % by weight
- MIC (% by weight of pentane-1,5-diol) ([4]; Coag.neg.staph. 902 × 14176 large, inoculate size 10^3, MR fuc −): 7.5 % by weight
- MIC (% by weight of pentane-1,5-diol) ([4]; Coag.neg.staph. 902 × 14176 large, inoculate size 10^5, MR fuc −): 20.0 % by weight
- MIC (% by weight of pentane-1,5-diol) ([4]; Coag.neg.staph. 902 × 14176 small, inoculate size 10^3, MR fuc +): 7.5 % by weight
- MIC (% by weight of pentane-1,5-diol) ([4]; Coag.neg.staph. 902 × 14176 small, inoculate size 10^5, MR fuc +): 10.0 % by weight
- MIC (% by weight of pentane-1,5-diol) ([4]; Coag.neg.staph. 904 × 2816, inoculate size 10^3, MR fuc +): 10.0 % by weight
- MIC (% by weight of pentane-1,5-diol) ([4]; Coag.neg.staph. 904 × 2816, inoculate size 10^5, MR fuc +): 17.5 % by weight
- MIC (% by weight of pentane-1,5-diol) ([4]; Coag.neg.staph. 916 × 8132, inoculate size 10^3, MR fuc −): 7.5 % by weight
- MIC (% by weight of pentane-1,5-diol) ([4]; Coag.neg.staph. 916 × 8132, inoculate size 10^5, MR fuc −): 12.5 % by weight
- MIC (% by weight of pentane-1,5-diol) ([4]; Coag.neg.staph. 916 × 8188, inoculate size 10^3, MR fuc −): 15.0 % by weight
- MIC (% by weight of pentane-1,5-diol) ([4]; Coag.neg.staph. 916 × 8188, inoculate size 10^5, MR fuc −): 17.5 % by weight
- MIC (% by weight of pentane-1,5-diol) ([5]; Enterobacter 921 × 57097, inoculate size 10^3): 5.0 % by weight
- MIC (% by weight of pentane-1,5-diol) ([5]; Enterobacter 921 × 57097, inoculate size 10^5): 10.0 % by weight
- MIC (% by weight of pentane-1,5-diol) ([5]; Enterobacter 921 × 57100, inoculate size 10^3): 5.0 % by weight
- MIC (% by weight of pentane-1,5-diol) ([5]; Enterobacter 921 × 57100, inoculate size 10^5): 10.0 % by weight
- MIC (% by weight of pentane-1,5-diol) ([5]; Enterobacter 921 × 57119, inoculate size 10^3): 5.0 % by weight
- MIC (% by weight of pentane-1,5-diol) ([5]; Enterobacter 921 × 57119, inoculate size 10^5): 10.0 % by weight
- MIC (% by weight of pentane-1,5-diol) ([5]; Enterobacter 921 × 57416, inoculate size 10^3): 5.0 % by weight
- MIC (% by weight of pentane-1,5-diol) ([5]; Enterobacter 921 × 57416, inoculate size 10^5): 10.0 % by weight
- MIC (% by weight of pentane-1,5-diol) ([5]; Enterobacter 921 × 57514, inoculate size 10^3): 5.0 % by weight
- MIC (% by weight of pentane-1,5-diol) ([5]; Enterobacter 921 × 57514, inoculate size 10^5): 10.0 % by weight
- MIC (% by weight of pentane-1,5-diol) ([5]; Enterobacter 921 × 57574, inoculate size 10^3): 5.0 % by weight
- MIC (% by weight of pentane-1,5-diol) ([5]; Enterobacter 921 × 57574, inoculate size 10^5): 10.0 % by weight
